According to patent US9850219B1, “Phenothiazine derivatives and methods of use thereof” (Acenda Pharma, Inc., priority 2016, dated 2017):

Key:
H441GL = assay: Cytotoxicity, sulforhodamine B (SRB) assay, H441GL; type: cell-based, Human; conditions: 48 h, NA indicates no activity
Source text: (§1) Human non-small cell lung cancer (NSCLC) cell lines (e.g., A549, H441GL and H1299), colon cancer cell lines (e.g., HCT116 and DLD1), breast cancer cell lines (e.g., MCF7 and MDA-MB-231), and pancreatic cancer cell lines (e.g., PANC-1 and SUIT-2) were used in cytotoxicity studies. […] A549 and H441GL are EGFR-wild type adenocarcinoma cell lines. H1299 is an EGFR-wild type large cell carcinoma cell line. HCT116 and DLD1 are metastatic colon cell lines. MCF7 is a hormone-responsive breast cancer cell line. MDA-MB-231 is a triple-negative breast cancer cell line. PANC-1 is a metastatic adenocarcinoma cell line. SUIT-2 is a pancreatic ductal adenocarcinoma cell line.
(§2) All cell lines were grown and maintained in RPMI medium supplemented with 10% fetal bovine serum (FBS, Invitrogen), 2 mM L-glutamine, 100 U/mL penicillin, and 100 μg/mL streptomycin. For cell the culture experiment, stock solution (10 mM) of each test compound was dissolved in dimethyl sulfoxide (DMSO; Sigma).
(§3) Cells were plated in 96-well plates at a density of 2000 cells per well in triplicate. The cells in each well were treated on the third day (to ensure proper plating efficiency and vitality) with different concentrations (0-50 μM) of each test compound for 48 h.
(§4) Cell viability was assessed using the sulforhodamine B (SRB) assay. The medium was discarded, and the adherent cells were fixed by 100 μL of cold 10% trichloroacetic acid (w/v) in each well for 1 h at 4° C. After fixation, cells were stained with 100 μL/well of 0.4% (w/v, in 1% acetic acid) SRB solution for 30 min at room temperature, and then washed 5 times with 1% acetic acid. After air-drying, 100 μL of 10 mM Tris base was added to each well and the absorbance was read at 530 nm. Cytotoxicity is expressed as the percent of cells in drug treated wells relative to number of cells in the solvent only control (set to 100%). Each experiment was performed independently in triplicate and cytotoxicity IC50 value of each test compound was calculated from cytotoxicity data obtained at various concentrations.

A549 = assay: Cytotoxicity, sulforhodamine B (SRB) assay, A549; type: cell-based, Human; conditions: A549, 48 h, NA indicates no activity
Source text: as §1, §2, §3, §4

HCT116 = assay: Cytotoxicity, sulforhodamine B (SRB) assay, HCT116; type: cell-based, human; conditions: 48 h
Source text: (§5) Human non-small cell lung cancer (NSCLC) cell lines (e.g., A549, H441GL and H1299), colon cancer cell lines (e.g., HCT116 and DLD1), breast cancer cell lines (e.g., MCF7 and MDA-MB-231), and pancreatic cancer cell lines (e.g., PANC-1 and SUIT-2) were used in cytotoxicity studies. These NSCLC cell lines have intrinsic resistance to epidermal growth factor receptor (EGFR) inhibitors, e.g., gefitinib. A549 and H441GL are EGFR-wild type adenocarcinoma cell lines. H1299 is an EGFR-wild type large cell carcinoma cell line. HCT116 and DLD1 are metastatic colon cell lines. MCF7 is a hormone-responsive breast cancer cell line. MDA-MB-231 is a triple-negative breast cancer cell line. PANC-1 is a metastatic adenocarcinoma cell line. SUIT-2 is a pancreatic ductal adenocarcinoma cell line.
as §2, §3, §4

DLD1 = assay: Cytotoxicity, sulforhodamine B (SRB) assay, DLD1; type: cell-based, human; conditions: 48 h
Source text: as §5, §2, §3, §4

MCF7 = assay: Cytotoxicity, sulforhodamine B (SRB) assay, MCF7; type: cell-based, human; conditions: MCF7, Breast, 48 h
Source text: as §5, §2, §3, §4

MDA-MB-231 = assay: Cytotoxicity, sulforhodamine B (SRB) assay, MDA-MB-231; type: cell-based, human; conditions: MDA-MB-231, Breast, 48 h
Source text: as §5, §2, §3, §4

PANC-1 = assay: Cytotoxicity, sulforhodamine B (SRB) assay, PANC-1; type: cell-based, human; conditions: PANC-1, Pancreas, 48 h, NA = no activity
Source text: as §5, §2, §3, §4

SUIT-2 = assay: Cytotoxicity, sulforhodamine B (SRB) assay, SUIT-2; type: cell-based, human; conditions: SUIT-2, Pancreas, 48 h
Source text: as §5, §2, §3, §4

H441GL cells [1] = assay: Study 1: tumor size in mouse lung cancer model; type: in vivo, NOD/SCID mice; conditions: Study 1, 5 mg/kg/day, 5 days/week, i.p.
Protocol: (§6) H441GL cells (1×10^6 cells in 100 μL phosphate-buffered saline/injection) were subcutaneously injected into the right flank of NOD/SCID mice (female, 4-6 weeks old). Mice were allowed 2 weeks for tumor growth. On the first day of Week 3 post injection, tumor-bearing mice were randomly divided into control group (DMSO vehicle, intraperitoneal (i.p.) injection) and test compound treatment groups (5 mg/kg/day, 5 days/week, i.p. injection). Over the period of 10 weeks, tumorigenesis in both groups was measured using a caliper on a weekly basis. The change in tumor size was expressed as in fold change from Week 3. In this study body weight of each mouse was also recorded at the end of each study week.

lung cancer cells = assay: Cytotoxicity SRB assay, summary of Table 2; type: cell-based, Human; conditions: summary in words of Table 2
Source text: as §5, §3, §4
NA indicates no activity.

H1299 = assay: Cytotoxicity, sulforhodamine B (SRB) assay, H1299; type: cell-based; conditions: Homo sapiens, NCI-H1299, H1299, 48 h
Source text: as §1, §2, §3, §4

H441GL cells [2] = assay: Study 2: tumor size in mouse lung cancer model; type: in vivo, NOD/SCID mice; conditions: Study 2, 0.0127 mmol/kg daily, i.p.
Protocol: as §6
In this study, the daily dose was 0.0127 mmol/kg instead of 5 mg/kg.

[3] = Week 3 (baseline, start of treatment)
[4] = Homo sapiens, HCT-116, HCT116, Colon
[5] = Homo sapiens, DLD-1, DLD1, Colon

Row | SMILES | inhibition of cell proliferation of lung cancer cells (lung cancer cells) | IC50 (H441GL; Homo sapiens) [µM] | IC50 (A549; Homo sapiens) [µM] | IC50 (H1299) [µM] | IC50 (MCF7; Homo sapiens) [µM] | IC50 (MDA-MB-231; Homo sapiens) [µM] | IC50 (PANC-1; Homo sapiens) [µM] | IC50 (SUIT-2; Homo sapiens) [µM] | IC50 (HCT116; [4]) [µM] | IC50 (DLD1; [5]) [µM] | further results
1 | COCCOCCOCCOCCOCCOCCOCCOCCOCCOCCOCCOCCOC(=O)N1CCN(CCCN2c3ccccc3Sc3ccc(C(F)(F)F)cc32)CC1 [Compound 5-3b, NDT-CO—O—[CH2CH2O]12—CH3] | inhibit cell proliferation |  |  |  |  |  |  |  |  |  | IC50 (H441GL): 1.6 µM; IC50 (A549): 2.7 µM; IC50 (HCT116; HCT116, Colon): 7.9 µM; IC50 (DLD1; DLD1, Colon): 18.2 µM; IC50 (MCF7): 8.3 µM; IC50 (MDA-MB-231): 9.2 µM; IC50 (PANC-1): 3.6 µM; IC50 (SUIT-2): 10.8 µM; Tumor Size [Fold Change from Week 3 (Mean ± SD, n = 4)] Week 3 (H441GL cells [1]; [3]): 1 ± 0 Fold Change; Tumor Size [Fold Change from Week 3 (Mean ± SD, n = 4)] Week 9 (H441GL cells [1]; Week 9): 33.4 ± 8.2 Fold Change; Tumor Size [Fold Change from Week 3 (Mean ± SD, n = 4)] Week 13 (H441GL cells [1]; Week 13): 79.4 ± 20.3 Fold Change
2 | COCC(COCC(COCC(CN1CCN(CCCN2c3ccccc3Sc3ccc(Cl)cc32)CC1)OC)OC)OC (stereo not shown) [Compound 24a, NDP-[CH2CH(OCH3)CH2O]3—CH3] | inhibit cell proliferation | 19.1 | 11.7 | 14.2 | 14.5 | 17.6 | 12.4 | 16.1 |  |  | 
3 | COCC(COCC(COCC(CN1CCN(CCCN2c3ccccc3Sc3ccc(C(F)(F)F)cc32)CC1)OC)OC)OC (stereo not shown) [Compound 24b, NDT-[CH2CH(OCH3)CH2O]3—CH3] | inhibit cell proliferation | 21 | 11.8 | 10.9 | 9.9 | 11.3 | 25.8 | 13.9 | 5.9 | 11.8 | 
4 | COCC(COCC(COCC(COCCOCCOCCN1CCN(CCCN2c3ccccc3Sc3ccc(Cl)cc32)CC1)OC)OC)OC (stereo not shown) [Compound 25-1a, NDP-[CH2CH2O]n—[CH2CH(OCH3)CH2O]3—CH3] | inhibit cell proliferation | 13.3 | 12.7 | 13.1 | 14.6 | 12.7 | 16.4 | 13 |  |  | Tumor Size [Fold Change from Week 3 (Mean ± SD, n = 4)] Week 3 (H441GL cells [2]; [3]): 1 ± 0 Fold Change; Tumor Size [Fold Change from Week 3 (Mean ± SD, n = 4)] Week 9 (H441GL cells [2]; Week 9): 12.3 ± 2.0 Fold Change; Tumor Size [Fold Change from Week 3 (Mean ± SD, n = 4)] Week 13 (H441GL cells [2]; Week 13): 31.5 ± 5.4 Fold Change
5 | COCC(COCC(COCC(COCCOCCOCCOCCOCCOCCOCCOCCOCCN1CCN(CCCN2c3ccccc3Sc3ccc(Cl)cc32)CC1)OC)OC)OC (stereo not shown) [Compound 25-2a, NDP-[CH2CH2O]n—[CH2CH(OCH3)CH2O]3—CH3] | inhibit cell proliferation | 17.5 | 16.7 | 16.8 | 13.3 | 16.8 | 35.4 | 25.6 |  |  | 
6 | COCCOCCOCCOCC(COCC(COCC(CN1CCN(CCCN2c3ccccc3Sc3ccc(C(F)(F)F)cc32)CC1)OC)OC)OC (stereo not shown) [Compound 26-1b, NDT-[CH2CH(OCH3)CH2O]3—[CH2CH2O]n—CH3] | inhibit cell proliferation | 12.1 | 14.4 | 20.4 | 10.3 | 6.4 |  | 12.9 | 8.5 | 13.9 | 
